Results as given in ChEMBL document CHEMBL1201862, “PubChem BioAssay data set” (2004).
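All cell lines were grown in 96-well plates and treated with compound for 48 hours. GI50 = concentration required for 50% inhibition of growth.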 The source made the active and inactive calls. No stated cut-off is given here; in the data, active = GI50 up to about 1.1 µM and inactive = higher.

Legend:
Experiment in all cases: DTP human tumour cell line panel, 48 h
A498 = system: A498
CAKI-1 = system: CAKI-1
DU-145 = system: DU-145
Hs-578T = system: Hs-578T
K562 = system: K562
KM12 = system: KM12
MCF7 = system: MCF7
NCI-H23 = system: NCI-H23
OVCAR-4 = system: OVCAR-4
PC-3 = system: PC-3
RPMI-8226 = system: RPMI-8226
SF-295 = system: SF-295
SK-MEL-28 = system: SK-MEL-28
SK-MEL-2 = system: SK-MEL-2
SK-OV-3 = system: SK-OV-3
SNB-19 = system: SNB-19
T47D = system: T47D
TK-10 = system: TK-10
U-251 = system: U-251
UO-31 = system: UO-31

Measured: GI50

O=C(C/C(=N/O)c1cc(-c2ccccc2)no1)c1ccccc1
inactive: A498 > 100 µM | CAKI-1 36.6 µM | DU-145 > 100 µM | Hs-578T 26.2 µM | K562 41.3 µM | KM12 > 100 µM | MCF7 44.5 µM | NCI-H23 20.9 µM | OVCAR-4 26.5 µM | PC-3 77.6 µM | RPMI-8226 > 100 µM | SF-295 33.7 µM | SK-MEL-28 > 100 µM | SK-MEL-2 26.1 µM | SK-OV-3 17.1 µM | SNB-19 26.5 µM | T47D 35.8 µM | TK-10 35.1 µM | U-251 28.6 µM | UO-31 26.4 µM

Cc1cccc(NC(=S)Nc2ccc([N+](=O)[O-])cc2)n1
inactive: A498 > 100 µM | CAKI-1 > 100 µM | DU-145 > 100 µM | Hs-578T > 100 µM | K562 > 100 µM | KM12 > 100 µM | MCF7 > 100 µM | NCI-H23 > 100 µM | OVCAR-4 > 100 µM | PC-3 > 100 µM | RPMI-8226 > 100 µM | SF-295 > 100 µM | SK-MEL-28 > 100 µM | SK-MEL-2 > 100 µM | SK-OV-3 > 100 µM | SNB-19 > 100 µM | T47D > 100 µM | TK-10 > 100 µM | U-251 > 100 µM | UO-31 > 100 µM
